The values that follow come from ChEMBL document CHEMBL1153688, “Design, synthesis, and pharmacological evaluation of dual histamine H2 and gastrin receptor antagonists” (Bioorg Med Chem Lett, 1996).

The target of experiment [1] is T1, Gastrin/cholecystokinin type B receptor (Mus musculus, UniProt P56481).
T1 sequence (P56481 whole entry): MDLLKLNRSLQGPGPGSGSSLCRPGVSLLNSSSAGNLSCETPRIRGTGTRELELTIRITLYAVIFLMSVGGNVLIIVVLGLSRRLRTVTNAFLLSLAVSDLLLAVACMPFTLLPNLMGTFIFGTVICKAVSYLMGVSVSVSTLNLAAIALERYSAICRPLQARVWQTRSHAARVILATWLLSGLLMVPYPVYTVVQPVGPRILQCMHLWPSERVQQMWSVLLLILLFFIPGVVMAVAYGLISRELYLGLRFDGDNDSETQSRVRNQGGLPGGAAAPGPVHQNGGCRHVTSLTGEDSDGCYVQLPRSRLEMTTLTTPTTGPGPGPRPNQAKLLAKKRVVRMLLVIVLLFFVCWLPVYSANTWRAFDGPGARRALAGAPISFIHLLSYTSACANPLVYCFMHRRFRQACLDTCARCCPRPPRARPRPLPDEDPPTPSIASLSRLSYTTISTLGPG
Nature of the experiment: Inhibitory activity against Cholecystokinin type B receptor.

The target of experiment [2] is T2, Cholecystokinin receptor type A (Mus musculus, UniProt O08786).
T2 sequence (O08786 whole entry): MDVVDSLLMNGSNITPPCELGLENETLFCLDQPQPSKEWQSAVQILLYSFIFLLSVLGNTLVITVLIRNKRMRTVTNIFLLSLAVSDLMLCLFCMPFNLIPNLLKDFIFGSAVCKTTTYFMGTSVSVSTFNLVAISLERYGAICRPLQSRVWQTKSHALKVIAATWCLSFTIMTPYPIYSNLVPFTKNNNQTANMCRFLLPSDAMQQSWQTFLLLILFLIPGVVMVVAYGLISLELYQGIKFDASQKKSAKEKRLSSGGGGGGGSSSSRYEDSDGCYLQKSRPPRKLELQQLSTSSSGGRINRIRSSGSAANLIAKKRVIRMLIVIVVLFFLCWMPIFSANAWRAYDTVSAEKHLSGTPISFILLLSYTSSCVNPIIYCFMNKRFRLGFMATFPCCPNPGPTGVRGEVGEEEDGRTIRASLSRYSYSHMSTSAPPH
As to the kind of experiment: Inhibitory activity against Cholecystokinin type A receptor.

Experiment [3] concerns the target Cholecystokinin receptor (Mus musculus) (UniProt O08786+P56481). As to the kind of experiment: Ratio of IC50(gastrin) to IC50(CCK-A). It counts as protein assay.
The target in another experiment is Histamine H2 receptor (Rattus norvegicus, UniProt P25102). As to the kind of experiment: Antagonistic activity for inhibition of histamine H2 receptor from anesthetized rats. The note with it: read-out: pA2 (converted). It counts as functional.
Chain of Histamine H2 receptor (P25102 whole entry): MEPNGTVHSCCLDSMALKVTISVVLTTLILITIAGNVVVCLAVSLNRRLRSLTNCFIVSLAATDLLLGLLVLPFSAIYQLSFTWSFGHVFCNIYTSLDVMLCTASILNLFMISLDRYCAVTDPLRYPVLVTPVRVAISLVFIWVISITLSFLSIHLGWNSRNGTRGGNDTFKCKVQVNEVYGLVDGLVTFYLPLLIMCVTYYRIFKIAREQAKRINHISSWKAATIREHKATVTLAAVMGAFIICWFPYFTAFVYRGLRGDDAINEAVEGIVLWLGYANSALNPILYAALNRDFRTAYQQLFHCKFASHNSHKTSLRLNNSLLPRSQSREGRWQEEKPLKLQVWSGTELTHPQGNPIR

As for `CN1C(=O)[C@H](NC(=O)Nc2cccc(CC(=O)NCCCOc3cccc(CN4CCCCC4)c3)c2)N=C(c2ccccc2)c2ccccc21`, the figures for the IC50 in experiment [1] and in experiment [2] were 160 nM and 4100 nM, respectively. In experiment [3], the Ratio amounted to 17.8. At Histamine H2 receptor, the Kb is greater than 10000 nM.

Regarding `Cc1cccc(NC(=O)NC2N=C(c3cccc(OCC(=O)NCCC(=O)NCCCOc4cccc(CN5CCCCC5)c4)c3)c3ccccc3N(C)C2=O)c1` (centres undefined), the IC50 (as a rule, the concentration that gives 50% inhibition) in experiment [1] was determined as 760 nM; in experiment [2], 15000 nM. The Ratio in experiment [3] came to 75. In addition, on Histamine H2 receptor, the Kb is 501 nM.

Take `Cc1cccc(NC(=O)NC2N=C(c3ccccc3)c3ccccc3N(CC(=O)NCC(=O)NCCCOc3cccc(CN4CCCCC4)c3)C2=O)c1` (centres undefined): the figures for the IC50 in experiment [1] and in experiment [2] were 3600 nM and 430 nM, respectively. For the same compound, the Ratio in experiment [3] is 0.5. On Histamine H2 receptor, the Kb is 6310 nM.

On to `Cc1cccc(NC(=O)NC2N=C(c3cccc(OCC(=O)NCCCOc4cccc(CN5CCCCC5)c4)c3)c3ccccc3N(C)C2=O)c1` (centres undefined), for which the values for the IC50 in experiment [1] and in experiment [2] were 1700 nM and 9200 nM, respectively. In addition, the Ratio in experiment [3] came out at 16.1. The Kb at Histamine H2 receptor was 5010 nM.

As to `CN1C(=O)[C@H](NC(=O)Nc2cccc(C(=O)NCCSCc3csc(N=C(N)N)n3)c2)N=C(c2ccccc2)c2ccccc21`, the figures for the concentration for half-maximal inhibition (IC50) in experiment [1] and in experiment [2] were 440 nM and 380 nM, respectively. In addition, the Ratio in experiment [3] came to 1. Besides, at Histamine H2 receptor, the Kb is greater than 10000 nM.

For `CN/C(=N/CCSCc1nc[nH]c1C)NC#N` [CIMETIDINE], on Histamine H2 receptor, the Kb was 251 nM.

Turning to `Cc1cccc(NC(=O)NC2N=C(c3ccccc3)c3ccccc3N(CC(=O)NCCCC(=O)NCCCOc3cccc(CN4CCCCC4)c3)C2=O)c1` (centres undefined), the IC50 in experiment [1] is 5000 nM; in experiment [2], 900 nM. For the same compound, the Ratio in experiment [3] was 4.3. Moreover, on Histamine H2 receptor, the Kb is 794 nM.

`Cc1cccc(NC(=O)NC2N=C(c3ccccc3)c3ccccc3N(CC(=O)NCCSCc3csc(N=C(N)N)n3)C2=O)c1` (centres undefined): the IC50 in experiment [1] worked out at 35 nM; in experiment [2], 4800 nM. For the same compound, the Ratio in experiment [3] amounted to 1600. Further, the Kb at Histamine H2 receptor is greater than 10000 nM.

For the compound `CN1C(=O)[C@H](NC(=O)Nc2cccc(CC(=O)NCCCC(=O)NCCSCc3csc(N=C(N)N)n3)c2)N=C(c2ccccc2)c2ccccc21`, the IC50 in experiment [1] and in experiment [2] was 330 nM each time. Moreover, the Ratio in experiment [3] is 1.4. Besides, the Kb at Histamine H2 receptor was 501 nM.

As to `Cc1cccc(NC(=O)NC2N=C(c3ccccc3)c3ccccc3N(CC(=O)NCCC(=O)NCCSCc3csc(N=C(N)N)n3)C2=O)c1` (centres undefined), the values for the concentration for half-maximal inhibition (IC50) in experiment [1] and in experiment [2] were 430 nM and 390 nM, respectively. Further, the Ratio in experiment [3] was 5.2. The Kb at Histamine H2 receptor was 1260 nM.

Turning to `Cc1cccc(NC(=O)NC2N=C(c3ccccc3)c3ccccc3N(CC(=O)NCCCOc3cccc(CN4CCCCC4)c3)C2=O)c1` (centres undefined), the half-inhibitory concentration (IC50) turned out to be 540 nM in experiment [1] and 5700 nM in experiment [2]. Moreover, in experiment [3], the Ratio stood at 36.8. For the same compound, on Histamine H2 receptor, the Kb was greater than 10000 nM.

For `Cc1cccc(NC(=O)NC2N=C(c3cccc(OCC(=O)NCC(=O)NCCCOc4cccc(CN5CCCCC5)c4)c3)c3ccccc3N(C)C2=O)c1` (centres undefined), the IC50 in experiment [1] turned out to be 550 nM; in experiment [2], 5200 nM. Moreover, the Ratio in experiment [3] is 82.5. In addition, on Histamine H2 receptor, the Kb is 501 nM.

As for `Cc1cccc(NC(=O)NC2N=C(c3ccccc3)c3ccccc3N(CC(=O)NCC(=O)NCCSCc3csc(N=C(N)N)n3)C2=O)c1` (centres undefined), the half-maximal inhibitory concentration (IC50) in experiment [1] was 6800 nM; in experiment [2], 760 nM. Moreover, the Ratio in experiment [3] came out at 2.1. Further, at Histamine H2 receptor, the Kb is 3980 nM.

Take `Cc1cccc(NC(=O)NC2N=C(c3cccc(OCC(=O)NCCCCCC(=O)NCCCOc4cccc(CN5CCCCC5)c4)c3)c3ccccc3N(C)C2=O)c1` (centres undefined): the results for the 50% inhibitory concentration (IC50) in experiment [1] and in experiment [2] were 320 nM and 3600 nM, respectively. In experiment [3], the Ratio was 112. At Histamine H2 receptor, the Kb is 631 nM.

For `Cc1cccc(NC(=O)NC2N=C(c3cccc(OCC(=O)NCCCC(=O)NCCSCc4csc(N=C(N)N)n4)c3)c3ccccc3N(C)C2=O)c1` (centres undefined), the figures for the IC50 in experiment [1] and in experiment [2] were 215 nM and 2100 nM, respectively. Moreover, the Ratio in experiment [3] stood at 150. Besides, the Kb at Histamine H2 receptor was 631 nM.

For the compound `Cc1cccc(NC(=O)NC2N=C(c3cccc(OCC(=O)NCCC(=O)NCCSCc4csc(N=C(N)N)n4)c3)c3ccccc3N(C)C2=O)c1` (centres undefined), the IC50 in experiment [1] is 400 nM; in experiment [2], 2000 nM. The Ratio in experiment [3] worked out at 80. Moreover, the Kb at Histamine H2 receptor is 794 nM.

As to `CN1C(=O)[C@H](NC(=O)Nc2cccc(CC(=O)NCCC(=O)NCCSCc3csc(N=C(N)N)n3)c2)N=C(c2ccccc2)c2ccccc21`, the half-maximal inhibitory concentration (IC50) in experiment [1] is 200 nM; in experiment [2] it was 120 nM. The Ratio in experiment [3] came out at 1.5. The Kb at Histamine H2 receptor was 398 nM.

Consider `Cc1cccc(NC(=O)NC2N=C(c3ccccc3)c3ccccc3N(CC(=O)NCCC(=O)NCCCOc3cccc(CN4CCCCC4)c3)C2=O)c1` (centres undefined), for which the figures for the IC50 in experiment [1] and in experiment [2] were 2150 nM and 1300 nM, respectively. In addition, in experiment [3], the Ratio was found to be 7. The Kb on Histamine H2 receptor is 794 nM.

For `Cc1cccc(NC(=O)NC2N=C(c3ccccc3)c3ccccc3N(CC(=O)NCCCC(=O)NCCSCc3csc(N=C(N)N)n3)C2=O)c1` (centres undefined), the IC50 is 6600 nM in experiment [1] and 720 nM in experiment [2]. Further, the Ratio in experiment [3] is 3.8. For the same compound, the Kb on Histamine H2 receptor was 3160 nM.

For `Cc1cccc(NC(=O)N[C@@H]2N=C(c3ccccc3)c3ccccc3N(C)C2=O)c1` [L-365260], in experiment [2], the IC50 amounted to 11100 nM.

With `CN1C(=O)[C@H](NC(=O)Nc2cccc(C(=O)NCCCOc3cccc(CN4CCCCC4)c3)c2)N=C(c2ccccc2)c2ccccc21`, the values for the 50% inhibitory concentration (IC50) in experiment [1] and in experiment [2] were 600 nM and 2500 nM, respectively. Further, the Ratio in experiment [3] stood at 4.5. Further, the Kb at Histamine H2 receptor was greater than 10000 nM.

Take `CN1C(=O)[C@H](NC(=O)Nc2cccc(CC(=O)NCCCCCC(=O)NCCCOc3cccc(CN4CCCCC4)c3)c2)N=C(c2ccccc2)c2ccccc21`: the figures for the 50% inhibitory concentration (IC50) in experiment [1] and in experiment [2] were 92 nM and 340 nM, respectively. Also, in experiment [3], the Ratio was found to be 3.1. Besides, on Histamine H2 receptor, the Kb is 631 nM.

As to `CN1C(=O)[C@H](NC(=O)Nc2cccc(CC(=O)NCCCCCC(=O)NCCSCc3csc(N=C(N)N)n3)c2)N=C(c2ccccc2)c2ccccc21`, the half-inhibitory concentration (IC50) in experiment [1] was found to be 255 nM; in experiment [2], 190 nM. The Ratio in experiment [3] came to 4.2. Moreover, at Histamine H2 receptor, the Kb was 1000 nM.

Consider `CN1C(=O)[C@H](NC(=O)Nc2cccc(CC(=O)NCCC(=O)NCCCOc3cccc(CN4CCCCC4)c3)c2)N=C(c2ccccc2)c2ccccc21`, for which the figures for the IC50 in experiment [1] and in experiment [2] were 290 nM and 190 nM, respectively. The Ratio in experiment [3] was determined as 1.4. Also, the Kb at Histamine H2 receptor was 251 nM.

For `CN1C(=O)[C@H](NC(=O)Nc2cccc(CC(=O)NCCCC(=O)NCCCOc3cccc(CN4CCCCC4)c3)c2)N=C(c2ccccc2)c2ccccc21`, the IC50 in experiment [1] amounted to 205 nM; in experiment [2], 330 nM. For the same compound, in experiment [3], the Ratio was found to be 2.9. The Kb at Histamine H2 receptor is 398 nM.

Take `CN1C(=O)[C@H](NC(=O)Nc2cccc(CC(=O)NCCSCc3csc(N=C(N)N)n3)c2)N=C(c2ccccc2)c2ccccc21`: the IC50 in experiment [1] worked out at 480 nM; in experiment [2], 560 nM. For the same compound, the Ratio in experiment [3] was 3.4. Also, the Kb on Histamine H2 receptor was greater than 10000 nM.

Turning to `Cc1cccc(NC(=O)NC2N=C(c3cccc(OCC(=O)NCCSCc4csc(N=C(N)N)n4)c3)c3ccccc3N(C)C2=O)c1` (centres undefined), the values for the IC50 in experiment [1] and in experiment [2] were 350 nM and 5400 nM, respectively. Further, the Ratio in experiment [3] is 40. Further, on Histamine H2 receptor, the Kb is 5010 nM.

In the case of `Cc1cccc(NC(=O)NC2N=C(c3cccc(OCC(=O)NCC(=O)NCCSCc4csc(N=C(N)N)n4)c3)c3ccccc3N(C)C2=O)c1` (centres undefined), the 50% inhibitory concentration (IC50) in experiment [1] is 310 nM; in experiment [2] it was 1090 nM. Also, the Ratio in experiment [3] stood at 90.8. Moreover, at Histamine H2 receptor, the Kb is 1000 nM.

Take `Cc1cccc(NC(=O)NC2N=C(c3ccccc3)c3ccccc3N(CC(=O)NCCCCCC(=O)NCCCOc3cccc(CN4CCCCC4)c3)C2=O)c1` (centres undefined): the values for the IC50 in experiment [1] and in experiment [2] were 800 nM and 650 nM, respectively. Moreover, the Ratio in experiment [3] was found to be 40.6. Moreover, on Histamine H2 receptor, the Kb was 398 nM.

In the case of `Cc1cccc(NC(=O)NC2N=C(c3cccc(OCC(=O)NCCCC(=O)NCCCOc4cccc(CN5CCCCC5)c4)c3)c3ccccc3N(C)C2=O)c1` (centres undefined), the IC50 came out at 290 nM in experiment [1] and 9400 nM in experiment [2]. The Ratio in experiment [3] turned out to be 157. For the same compound, at Histamine H2 receptor, the Kb was 316 nM.
